Data: US10207988B2, “Methods and compositions for treatment of cancer and autoimmune disease” (THE JACKSON LABORATORY, priority 2011, dated 2019)

Legend:
[1] = system: primary mouse B-cells from AID knockout mice (AID−/−); assay: viable cell counts (Trypan blue) of primary B-cells cultured with DIDS; format: cell-based; conditions: 0-150 μM DIDS
Protocol: (§1) Primary mouse B-cells were isolated from spleens of adult C57BL/6J mice (AID+/+) and from AID knockout mice (AID−/−) (see Example 1 and 2). 1×10^^6 primary B-cells were seeded into tissue culture plates, stimulated with 1 μg/ml anti-CD40 antibodies (anti-CD40; BD Pharmingen; Cat. No. 553721) and 25 ng/ml IL-4 or with anti-CD40 alone on day 0 and day 2. 0, 50 μM, 100 μM or 150 μM of DIDS was added at time 0 and 2 days after culture initiation, when culture volumes were adjusted to accommodate cell growth. The cells were cultured over 6 days. The number of viable cells were counted after staining with Trypan blue using a hemacytometer on days 1, 2, 3, 4 and 6. In FIG. 7 the number of viable primary B-cells from C57BL/6J mice (AID+/+) and AID-knockout mice (AID−/−) after treatment with DIDS is shown.

[2] = system: primary mouse B-cells from C57BL/6J mice (AID+/+); assay: as above; format: cell-based
Protocol: as §1

[3] = system: cells isolated from the spleens of wild type or AID knockout (−/−) mice; assay: splenocyte viability, Guava EasyCyte Flow Cytometer Assay; format: cell-based, mouse; conditions: 150 μM DIDS, stimulated with anti-CD40 antibodies and IL-4
Protocol: Cells isolated from the spleens of wild-type (WT) or AICDA knock-out (−/−) mice were stimulated with anti-CD40 antibodies and IL-4 on day 0 and day 2. DIDS was added on day 0 and day 2 at concentrations of 0 or 150 μM. WT cells stimulated with anti-CD40 antibodies plus IL-4 and treated with DIDS are shown as filled boxes, AICDA−/− cells stimulated with anti-CD40 antibodies plus IL-4 and treated with DIDS as circle; WT cells stimulated with anti-CD40 antibodies plus IL-4 are shown as open diamonds; and AICDA−/− cells stimulated with anti-CD40 plus IL-4 antibodies as open triangles. The total number of viable cells was determined every other day. Days are shown on the x-axis and the fraction of viable cells is shown on the y-axis.
Cells were isolated from the spleens of wild type or AID knockout (−/−) mice, cultured and stimulated with anti-CD40 antibodies and IL-4 on day 0 and day 2. DIDS was added on day 0 and day 2 at concentrations of 0 or 150 μM. The total number of viable cells was determined every other day using Guava EasyCyte Flow Cytometer Assay.

[4] = system: phosphor-H2AX foci in AID+ and AID− primary human CLL cells; assay: phospho-H2AX foci in primary human CLL cells treated with DIDS; format: cell-based; conditions: 30 μM DIDS, 2 days in culture, AID+ versus AID− samples
Text: Primary human CLL patient derived cells were obtained from peripheral bleeds collected at the time of routine clinical monitoring. Primary peripheral blood samples were collected via routine venipuncture into BD Vacutainer CPT Cell Separation Tubes (Becton Dickinson). Samples were centrifuged to separate red blood cells (RBC) and then inverted to resuspend the monocuclear cells in their own plasma. Samples were stored overnight at the site of collection at room temperature then shipped via courier to the site of analysis. Each sample was tested for AID expression status by reverse transcription PCR (RT-PCR) to detect presence of the human AID mRNA (see Example 11). Samples were then divided into AID+ (those showing detectable levels of AID mRNA) and AID− (those showing no detectable AID mRNA above background) groups. Multiple independent cultures from different AID+ and AID− samples were initiated in standard RPMI-1640 medium containing 10% FBS plus either 0 or 30 μM DIDS. After 2 days in culture, cells from each culture/condition were fixed using paraformaldehyde, mounted on microscope coverslips, permeabilized by washing with weak detergent, and were processed for immunofluorescent detection of the DNA double strand break marker phosphor-H2AX (primary antibody: cat. No. A300-081A, Bethyl Laboratories; 1:400 dilution). […]

[5] = system: activated caspase 3 (AC3) in AID+ and AID− primary human CLL cells; assay: activated caspase 3 (AC3) staining in primary human CLL cells treated with DIDS; format: cell-based; conditions: 30 μM DIDS, 3 days in culture
Text: Primary human CLL patient derived cells were obtained from peripheral bleeds collected at the time of routine clinical monitoring. Primary peripheral blood samples were collected via routine venipuncture into BD Vacutainer CPT Cell Separation Tubes. Samples were centrifuged to separate red blood cells (RBC) and then inverted to resuspend the mononuclear cells in their own plasma. Samples were stored overnight at the site of collection at room temperature then shipped via courier to the site of analysis. Each sample was tested for AID expression status by reverse transcription PCR (RT-PCR) to detect presence of the human AID mRNA (see Example 11). Samples were then divided into AID+ (those showing detectable levels of AID mRNA) and AID− (those showing no detectable AID mRNA above background) groups. Multiple independent cultures from different AID+ and AID− samples were initiated in standard RPMI-1640 medium containing 10% FBS plus either 0 or 30 μM DIDS. After 3 days in culture, cells from were fixed with paraformaldehyde, mounted on microscope coverslips, permeabilized by washing with weak detergent, and processed for immunofluorescent detection of the apoptosis marker activated caspase 3 (AC3) (primary antibody: cat. No. ab13847, Abcam; 1:100 dilution). Nuclear DNA was counterstained with 4′,6-diamidino-2-phenylindole (DAPI). […]

O=S(=O)([O-])c1cc(N=C=S)ccc1/C=C/c1ccc(N=C=S)cc1S(=O)(=O)[O-].[Na+].[Na+] [DIDS, 4,4′diisothiocyanostilbene-2,2′-disulfonic acid]
number of viable cells [1]: no significant change in cell viability | number of viable cells ([2]; 100 μM DIDS, stimulated with anti-CD40 + IL-4): decrease of B-cell viability | number of viable cells ([2]; 150 μM DIDS, stimulated with anti-CD40 + IL-4, days 1-6): greatly reduces the cell viability from day 3 on | number of viable cells ([2]; not stimulated with anti-CD40+IL-4): does not influence the cell viability | total number of viable cells [3]: lower viability | phosphor-H2AX foci per cell (DNA double strand break marker) [4]: inhibits repair of AID-mediated genomic DNA double strand breaks (DSBs) | fraction of cells showing positive staining for AC3 [5]: higher fraction of AC3-positive cells
